Source: patent USRE48267E1, “Variants of C-type natriuretic peptide” (priority 2009, dated 2020)
Where a SMILES comes first, the peptide text is derived from it. Bridges are numbered along the chain shown (N, C = ends). The star is where a group is joined. MeO(CH2CH2O)23CH2CH2CO = COCCOCCOCCOCCOCCOCCOCCOCCOCCOCCOCCOCCOCCOCCOCCOCCOCCOCCOCCOCCOCCOCCOCCOCCC(=O)*

Columns and labels:
[1] = system: FGFR3^ach mice; test: bone growth biomarkers in FGFR3^ach mice; type: in vivo, mouse; settings: 200 nmol/kg s.c. daily, Day 36
Protocol: Plasma and serum were collected during the study. Harvested plasma was stored with 10× protease inhibitor at −80° C. until analysis. cGMP levels were measured 15 minutes post-injection on Day 36 from K2-ETDA plasma collection tubes. Fragments of cleaved collagen type II (cartilage-associated biomarkers), osteocalcin (bone-associated biomarker), and IgG (relating to immunogenicity) were measured from terminal bleed serum at the end of the study (Day 37). cGMP was measured using a commercially available ELISA kit (Cayman Chemical Co., Cat. No. 581021.1), cleaved collagen type II (Cartilaps) was measured using a commercially available kit from Immunodiagnostic Systems (Cat. No. 3CAL4000), and osteocalcin was measured using a commercially available kit from Biomedical Technologies Inc. (Stoughton, Mass.).

[2] = biological target: Recombinant human NEP (Homo sapiens, UniProt P08473); test: in vitro NEP cleavage assay (disappearance of non-cleaved CNP variant)
Chain of Recombinant human NEP (P08473 whole entry): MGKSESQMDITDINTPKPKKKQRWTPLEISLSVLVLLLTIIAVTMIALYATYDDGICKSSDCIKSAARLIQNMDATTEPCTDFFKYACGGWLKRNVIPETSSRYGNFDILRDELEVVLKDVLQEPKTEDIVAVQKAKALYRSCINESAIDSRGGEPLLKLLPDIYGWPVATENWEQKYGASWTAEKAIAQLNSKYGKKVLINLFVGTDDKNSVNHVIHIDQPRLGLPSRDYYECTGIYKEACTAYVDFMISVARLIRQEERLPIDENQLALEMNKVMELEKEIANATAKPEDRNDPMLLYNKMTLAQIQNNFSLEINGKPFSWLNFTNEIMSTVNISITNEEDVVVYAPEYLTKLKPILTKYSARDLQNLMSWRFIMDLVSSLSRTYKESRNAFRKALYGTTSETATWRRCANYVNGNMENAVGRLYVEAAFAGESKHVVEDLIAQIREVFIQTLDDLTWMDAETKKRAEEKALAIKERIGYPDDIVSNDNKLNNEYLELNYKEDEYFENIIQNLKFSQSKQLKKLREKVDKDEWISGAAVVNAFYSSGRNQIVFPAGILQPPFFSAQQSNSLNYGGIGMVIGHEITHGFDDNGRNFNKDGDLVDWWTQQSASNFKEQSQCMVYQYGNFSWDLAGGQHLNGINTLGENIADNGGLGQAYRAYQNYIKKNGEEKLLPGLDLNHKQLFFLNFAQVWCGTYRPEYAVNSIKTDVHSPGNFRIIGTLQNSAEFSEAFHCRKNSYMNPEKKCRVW
Method in brief: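 Recombinant human NEP (1 ug/mL final) incubated with 100 uM CNP variant in 0.1 M Tris, pH 7, at 37° C for various times, then quenched with EDTA (10 mM final) and heat. Samples reduced and analysed by HPLC and mass spectrometry. Half-life derived from loss of intact variant over time.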

[3] = biological target: T1, NPR-B (Mus musculus, UniProt Q6VVW5); test: stimulation of cGMP production in NIH3T3 cells; type: cell-based, murine; settings: NIH3T3 cells
T1 construct: Murine NIH3T3 cells express endogenously the CNP signaling receptor, NPR-B; endogenous in cells; host or cells: NIH3T3
T1 sequence (Q6VVW5 17-1047): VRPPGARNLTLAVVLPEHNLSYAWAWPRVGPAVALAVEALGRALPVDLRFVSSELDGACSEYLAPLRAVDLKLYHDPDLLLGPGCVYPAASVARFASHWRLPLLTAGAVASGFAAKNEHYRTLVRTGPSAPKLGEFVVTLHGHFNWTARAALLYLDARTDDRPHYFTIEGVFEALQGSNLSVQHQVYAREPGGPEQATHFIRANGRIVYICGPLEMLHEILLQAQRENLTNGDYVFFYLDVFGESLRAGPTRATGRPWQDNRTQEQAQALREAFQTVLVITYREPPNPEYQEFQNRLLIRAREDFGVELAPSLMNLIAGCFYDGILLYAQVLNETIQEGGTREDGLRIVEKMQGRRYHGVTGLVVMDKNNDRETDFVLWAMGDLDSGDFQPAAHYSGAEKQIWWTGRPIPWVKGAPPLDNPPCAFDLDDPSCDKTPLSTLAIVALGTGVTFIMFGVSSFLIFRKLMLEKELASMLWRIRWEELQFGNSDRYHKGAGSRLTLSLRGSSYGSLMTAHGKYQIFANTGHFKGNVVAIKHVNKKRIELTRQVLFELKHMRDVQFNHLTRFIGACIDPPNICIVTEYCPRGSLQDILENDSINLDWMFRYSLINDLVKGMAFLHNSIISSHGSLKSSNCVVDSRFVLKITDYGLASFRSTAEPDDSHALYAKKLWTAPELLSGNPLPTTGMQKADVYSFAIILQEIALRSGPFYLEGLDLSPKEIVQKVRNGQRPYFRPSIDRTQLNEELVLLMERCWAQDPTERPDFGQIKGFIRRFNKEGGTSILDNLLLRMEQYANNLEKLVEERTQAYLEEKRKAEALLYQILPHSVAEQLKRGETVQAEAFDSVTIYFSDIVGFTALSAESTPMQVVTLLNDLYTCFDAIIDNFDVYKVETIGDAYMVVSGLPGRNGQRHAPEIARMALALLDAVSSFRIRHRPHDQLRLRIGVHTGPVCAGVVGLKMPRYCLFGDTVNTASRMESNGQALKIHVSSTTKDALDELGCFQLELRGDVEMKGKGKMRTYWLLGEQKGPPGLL
Protocol: To determine the functional activity of CNP variants, the production of cGMP was measured in NIH3T3 cells exposed to the CNP variants. Murine NIH3T3 cells express endogenously the CNP signaling receptor, NPR-B, which shares 98% protein sequence identity with human NPR-B. NIH3T3 cells were cultured in high glucose Dulbecco's Modified Eagle Medium supplemented with 10% fetal calf serum and antibiotics at 37° C. with 5% CO2). Twenty four to 48 hours prior to signaling, cells were passaged to 12-well plates with a density of 2-5×10^5 cells per well at the time of the assay. CNP variants were resuspended in 1 mM HCl to a stock concentration of 1 mg/mL (455 uM for wtCNP22) and subsequently diluted to a 30 uM working stock solution with phosphate-buffered saline (PBS). Ten-fold serial dilutions were prepared in phosphate-buffered saline. Culture medium was removed from the cells and replaced with 0.4 mL PBS/Dulbecco's modified Eagle medium (50/50, v/v) containing 0.75 mM isobutylmethylxanine. Plates were incubated at 37° C., 5% CO2 for 15 minutes before addition of 0.2 mL CNP variant in PBS and continued incubation at 37° C. for 15 minutes. Reactions were stopped by the addition of 0.2 mL lysis buffer supplied with the CatchPoint cGMP assay kit (Molecular Devices), and cGMP production was determined with the CatchPoint cGMP Assay (Molecular Devices). All stimulation experiments were performed in duplicate.
Tables 1-4 summarize the ability of CNP variants having backbone or side chain modifications, amino acid substitutions, N-terminal amino acid extensions, and/or N-terminal PEGylation, respectively, to stimulate cGMP production in NIH3T3 cells. In all four tables, the values for cGMP production in NIH3T3 cells exposed to 10 nM or 1 uM CNP variant are normalized to cell number and cGMP production in the presence of 1 uM wtCNP22.

## CC[C@H](C)[C@@H]1NC(=O)[C@H](CCCNC(=N)N)NC(=O)[C@H](CC(=O)O)NC(=O)[C@H](CC(C)C)NC(=O)[C@H](CCCCN)NC(=O)[C@H](CC(C)C)NC(=O)CNC(=O)[C@H](Cc2ccccc2)NC(=O)[C@@H](NC(=O)CNC(=O)[C@H](CCCNC(=N)N)NC(=O)[C@H](CO)NC(=O)[C@H](CC(C)C)NC(=O)CNC(=O)[C@H](CCCNC(=N)N)NC(=O)[C@H](CCCNC(=N)N)NC(=O)[C@H](CC(N)=O)NC(=O)[C@H](C)NC(=O)CNC(=O)CCOCCOCCOCCOCCOCCOCCOCCOCCOCCOCCOCCOCCOCCOCCOCCOCCOCCOCCOCCOCCOCCOCCOCCOC)CSSC[C@@H](C(=O)O)NC(=O)CNC(=O)[C@H](CC(C)C)NC(=O)CNC(=O)[C@H](CO)NC(=O)[C@H](CCSC)NC(=O)[C@H](CO)NC(=O)CNC1=O [PEO24-GANRR-CNP22(K4R)] ({MeO(CH2CH2O)23CH2CH2CO}-GANRRGLSRGCFGLKLDRIGSMSGLGC-OH; disulfide 11-27)
[1]
  cGMP plasma levels 15 minutes post-injection, compared to vehicle: increase
[2]
  resistance to NEP cleavage (in words): completely resistant to NEP cleavage over the assay period of 160 minutes
[3]
  NPR-B stimulation activity / cGMP production compared with wtCNP22 (in words): stimulated greater cGMP production than PEO24-CNP22 and PEO24-CNP22 (K4R)
